The record followed here is ChEMBL document CHEMBL1142403, “Synthesis and anti-cancer activity of benzothiazole containing phthalimide on human carcinoma cell lines” (Bioorg Med Chem, 2008).

The test system of experiment [1] is SK-HEP1. Briefly: Cytotoxicity against human SK-Hep1 cells assessed as reduction in cellular ATP level after 48 hrs. The format is functional, cell-based. To be noted: SK-HEP1, 48 h, pooled result: one value given for 3 cell lines, strains, targets or settings.
Experiment [2] deals with T1, Caspase-3 (Homo sapiens) (UniProt P42574).
T1 sequence (whole entry): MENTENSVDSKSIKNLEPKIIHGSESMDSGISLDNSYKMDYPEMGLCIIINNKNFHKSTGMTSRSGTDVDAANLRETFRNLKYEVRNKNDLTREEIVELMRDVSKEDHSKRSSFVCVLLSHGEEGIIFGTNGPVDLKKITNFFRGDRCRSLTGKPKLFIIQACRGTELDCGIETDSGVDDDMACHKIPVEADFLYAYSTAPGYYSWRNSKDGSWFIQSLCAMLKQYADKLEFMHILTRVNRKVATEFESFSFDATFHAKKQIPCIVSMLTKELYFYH
Briefly: Activation of human caspase 3 in human CA46 cells at 110 uM after 48 hrs by PerkinElmer Trupoint assay. Format: cell-based.

Experiment [3] concerns the target T1, Caspase-3 (Homo sapiens). The experiment is described as follows: Activation of human caspase 3 in human SK-Hep1 cells at 110 uM after 48 hrs by PerkinElmer Trupoint assay. Format: cell-based.

Each structure is given as a SMILES string. Calls of active or inactive are those of the source. The rule behind the calls is not given here.

As usually defined, the IC50 is the concentration needed to halve the response being measured. For the compound `C[C@@]12C(=O)N(c3nc4ccc(OC(F)(F)F)cc4s3)C(=O)[C@]1(C)[C@H]1CC[C@@H]2O1` [CANTHARIDIMIDE], the half-maximal inhibitory concentration (IC50) in experiment [1] turned out to be 15.2 µM.
Consider `O=C1c2ccccc2C(=O)N1c1nc2ccc(OC(F)(F)F)cc2s1` [PHATHALIMIDE], for which, in experiment [1], the IC50 is 69 µM. Besides, the result in experiment [2] and in experiment [3] was Active.
